Values of other authors in US20090253799A1 (priority 2008, published 2009).

Biological target: T1, wildtype CFTR (Homo sapiens, UniProt P13569)
T1 construct: expressed in transfected cells
Settings: Muanprasat et al. 2004

T1 sequence (P13569 whole entry): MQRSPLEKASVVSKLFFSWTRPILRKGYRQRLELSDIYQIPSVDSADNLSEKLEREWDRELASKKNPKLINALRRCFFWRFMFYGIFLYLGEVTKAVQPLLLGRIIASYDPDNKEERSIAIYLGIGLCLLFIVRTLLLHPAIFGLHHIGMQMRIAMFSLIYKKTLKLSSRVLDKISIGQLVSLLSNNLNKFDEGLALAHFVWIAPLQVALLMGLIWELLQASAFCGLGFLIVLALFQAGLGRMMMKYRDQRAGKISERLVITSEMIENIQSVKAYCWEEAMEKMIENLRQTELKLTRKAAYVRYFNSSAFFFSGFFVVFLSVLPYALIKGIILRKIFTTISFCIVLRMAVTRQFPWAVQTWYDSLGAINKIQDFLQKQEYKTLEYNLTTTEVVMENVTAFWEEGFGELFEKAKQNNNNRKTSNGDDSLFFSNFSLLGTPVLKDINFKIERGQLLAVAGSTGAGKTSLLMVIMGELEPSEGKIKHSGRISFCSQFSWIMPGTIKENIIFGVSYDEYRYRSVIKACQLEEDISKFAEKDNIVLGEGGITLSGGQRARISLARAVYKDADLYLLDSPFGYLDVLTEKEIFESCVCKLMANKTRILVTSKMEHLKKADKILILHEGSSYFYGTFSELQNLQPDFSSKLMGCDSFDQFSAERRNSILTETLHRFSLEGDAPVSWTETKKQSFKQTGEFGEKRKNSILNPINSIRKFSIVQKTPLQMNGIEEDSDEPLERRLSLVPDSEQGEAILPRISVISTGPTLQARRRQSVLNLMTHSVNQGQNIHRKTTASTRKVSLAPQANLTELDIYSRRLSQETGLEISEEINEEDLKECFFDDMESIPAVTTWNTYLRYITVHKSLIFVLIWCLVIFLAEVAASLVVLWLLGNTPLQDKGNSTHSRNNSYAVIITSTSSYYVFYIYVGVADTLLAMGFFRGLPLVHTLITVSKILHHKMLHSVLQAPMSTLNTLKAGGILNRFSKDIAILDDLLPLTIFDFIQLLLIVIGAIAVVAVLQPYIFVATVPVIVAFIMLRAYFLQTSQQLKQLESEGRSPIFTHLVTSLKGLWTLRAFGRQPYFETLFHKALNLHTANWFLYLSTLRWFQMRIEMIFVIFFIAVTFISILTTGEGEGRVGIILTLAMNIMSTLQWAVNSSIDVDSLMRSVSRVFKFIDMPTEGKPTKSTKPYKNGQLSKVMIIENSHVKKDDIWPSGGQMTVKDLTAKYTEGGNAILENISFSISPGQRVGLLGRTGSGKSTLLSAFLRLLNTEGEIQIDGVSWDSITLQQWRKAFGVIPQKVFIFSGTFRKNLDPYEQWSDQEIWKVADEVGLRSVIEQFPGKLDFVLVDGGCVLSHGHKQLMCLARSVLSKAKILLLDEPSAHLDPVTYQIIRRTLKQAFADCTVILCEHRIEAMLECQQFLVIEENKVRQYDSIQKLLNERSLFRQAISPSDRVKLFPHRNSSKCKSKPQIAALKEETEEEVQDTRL

O=C(CNc1ccc2ccccc2c1)N/N=C/c1cc(Br)c(O)c(Br)c1O [GlyH-101]
time constants for block and unblock: 8 to 10 ms
